Key:
Format in all cases: in vivo
green peach aphid = assay: Repelling effect on green peach aphid, treated eggplant seed leaves; settings: ingredient 80 parts + auxiliary B 20 parts, 200 mg/100 ml water, 7 days at 22 to 30° C., number of adult insects vs distilled water area
Procedure: (§1) (polyoxyethylene phenyl ether+dodecylbenzenesulufonate): soybean oil (1:1:1)) (20 parts by mass) listed in Table 4 were mixed to prepare a sample of the repellent of the present invention. The repellent was diluted with water to 200 mg/100 ml which was then applied to seed leaves of eggplant (variety: Senryo No. 2). As control samples, auxiliary B alone and distilled water were used. After drying, the plant was maintained at 22 to 30° C. for 7 days in an isolated room in which green peach aphid were grown and the number of adult insects that came flying was counted with time. A repelling ratio was determined according to the following formula.

cotton aphid = assay: Repelling effect on cotton aphid, treated cucumber true leaves; settings: ingredient 80 parts + auxiliary A 20 parts, 200 mg/100 ml water, 7 days at 22 to 30° C., number of adult insects vs distilled water area
Procedure: Main ingredients (80 parts by mass) and auxiliary A (polyoxyethylene (5) monododecyl ether) (20 parts by mass) listed in Table 3 were mixed to prepare a sample of the repellent of the present invention.
(§2) The repellent was diluted with water to 200 mg/100 ml which was then applied to true leaves of cucumber (variety: Sagami Hanjiro at 0.7 leaf stage). As control samples, auxiliary A alone and distilled water were used. After drying, the plant was maintained at 22 to 30° C. for 7 days in an isolated room in which cotton aphid were grown and the number of adult insects that came flying was counted with time. A repelling ratio was determined according to the following formula. Repelling ratio (%)=100×[1−(the number of adult insects in the repellent applied area)/(the number of adult insects in the distilled water applied area)]

silverleaf whitefly = assay: Repelling effect on silverleaf whitefly, treated cucumber seed leaves; settings: ingredient 80 parts + auxiliary B 20 parts, 200 mg/100 ml water, 3 days at 22 to 30° C., number of adult insects vs distilled water area
Procedure: as §1, with “(1:1:1)” for “(1:1:1))”, “2” for “4”, “cucumber” for “eggplant”, “Sagami Hanjiro).” for “Senryo No. 2).”, “3” for “7”, “adult silverleaf whiteflies” for “green peach aphid”

greenhouse whitefly = assay: Repelling effect on greenhouse whitefly, treated common bean seed leaves; settings: ingredient 80 parts + auxiliary A 20 parts, 200 mg/100 ml water, 3 days at 22 to 30° C., number of adult insects vs distilled water area
Procedure: Main ingredients (80 parts by mass) and auxiliary A (polyoxyethylene (5) monododecyl ether) (20 parts by mass) listed in Table 1 were mixed to prepare a sample of the repellent of the present invention.
as §2, with “seed” for “true”, “common bean” for “cucumber”, “Taisho Kintoki).” for “Sagami Hanjiro at 0.7 leaf stage).”, “3” for “7”, “adult greenhouse whiteflies” for “cotton aphid”

western flower thrips = assay: Repelling effect on western flower thrips, insect damage on treated eggplant true leaves; settings: ingredient 80 parts + auxiliary A 20 parts, 200 mg/100 ml water, 10 days at 22 to 30° C., total degree of insect damage vs distilled water area
Procedure: Main ingredients (80 parts by mass) and auxiliary A (polyoxyethylene (5) monododecyl ether) (20 parts by mass) listed in Table 5 were mixed to prepare a sample of the repellent of the present invention. The repellent was diluted with water to 200 mg/100 ml which was then applied to true leaves of eggplant (variety: Senryo No. 2 at 3.5 leaf stage). As control samples, auxiliary A alone and distilled water were used. After drying, the plant was maintained at 22 to 30° C. for 10 days in an isolated room in which adult western flower thrips were grown and the degree of insect damage (the number of insect damage spots) was observed and were totaled based on the criteria: 0 for no damage, 1 for very slight damage, 3 for slight damage, 5 for remarkable damage and 10 for serious damage. A repelling ratio was determined according to the following formula.

Thrips palmi Karny = assay: Repelling effect on Thrips palmi Karny, insect damage on treated eggplant true leaves; settings: ingredient 80 parts + auxiliary B 20 parts, 200 mg/100 ml water, 10 days at 22 to 30° C., total degree of insect damage vs distilled water area
Procedure: The same procedures in Example 5 were repeated to prepare the repellent except that auxiliary B (diglycerin monooleate : (polyoxyethylene phenyl ether+dodecylbenzenesulufonate): soybean oil (1:1:1)) was used in place of auxiliary A.
The repellent was diluted with water to 200 mg/100 ml which was then applied to true leaves of eggplant (variety: Senryo No. 2 at 3.5 leaf stage). As control samples, auxiliary B alone and distilled water were used. After drying, the plant was maintained at 22 to 30° C. for 10 days in an isolated room in which adult Thrips palmi Karny were grown and the degree of insect damage (the number of insect damage spots) was observed and were totaled based on the criteria: 0 for no damage, 1 for very slight damage, 3 for slight damage, 5 for remarkable damage and 10 for serious damage. A repelling ratio was determined according to the following formula. Repelling ratio (%)=100×[1−(the total degree of insect damage in the repellent applied area)/(the total degree of insect damage in the distilled water applied area)]

| Compound | Repelling ratio (%) (green peach aphid) | Repelling ratio (%) (cotton aphid) | Repelling ratio (%) (silverleaf whitefly) | Repelling ratio (%) (greenhouse whitefly) | Repelling ratio (%) (western flower thrips) | Repelling ratio (%) (Thrips palmi Karny) |
| --- | --- | --- | --- | --- | --- | --- |
| glycerin monocaprylate [1-1] | 76 | 88 | 73 | 82 |  |  |
| glycerin monolaurate [5-1] |  |  |  |  | 62 | 65 |
| CCCCCCCCCCCC(=O)OCC(COC(=O)CCCCCCCCCCC)OC(=O)CCCCCCCCCCC [5-22, glycerin trilaurate] |  |  |  |  | 82 | 90 |
| glycerin monoacetomonostearate [5-8] |  |  |  |  | 68 | 55 |
| glycerin diacetomonolaurate [1-6] | 77 | 82 | 94 | 96 |  |  |
| polyoxyethylene (40) sorbitan [1-15] | 82 | 75 | 85 | 70 | 75 | 69 |
| OC[C@@H](O)[C@H]1OC[C@H](O)[C@H]1O [1-21, sorbitan] | 62 | 68 | 67 | 74 |  |  |
| glycerin monostearate [5-2] |  |  |  |  | 58 | 62 |
| glycerin monopalmitate [5-3] |  |  |  |  | 68 | 71 |
| glycerin monooleate [1-2] | 81 | 85 | 70 | 82 |  |  |
| CCCCCCCCCC(=O)O [1-18, n-capric acid] | 68 | 76 | 86 | 90 |  |  |
| OC[C@@H](O)[C@@H](O)[C@H](O)[C@@H](O)CO [5-23, sorbitol] |  |  |  |  | 61 | 55 |
| sorbitan laurate [1-4] | 82 | 96 | 92 | 92 | 53 | 63 |
| polyoxyethylene (5) monododecyl ether [1-23, reference compound] |  | 3 |  | 5 | 8 |  |
| sucrose fatty acid ester (laurate) [5-25] |  |  |  |  | 55 | 68 |
| citric acid unsaturated fatty acid monoglyceride [1-7] | 81 | 92 | 71 | 73 |  |  |
| propylene glycol monooleate [1-10] | 76 | 82 | 73 | 82 | 80 | 81 |
| decaglycerin oleate [1-8] | 78 | 95 | 75 | 76 |  |  |
| decaglycerin laurate [1-9] | 83 | 90 | 70 | 80 |  |  |
| CC(C)CCCCCCCCCCCCCCC(=O)O [1-20, isostearic acid] |  |  | 65 | 72 |  |  |
| diglycerin monostearate [5-5] |  |  |  |  | 60 | 55 |
| CCCCCCCC/C=C\CCCCCCCC(=O)O [1-19, oleic acid] | 70 | 70 | 68 | 84 | 76 | 69 |
| sorbitan oleate [1-5] | 85 | 93 | 75 | 80 |  |  |
| decaglycerin stearate [5-7] |  |  |  |  | 77 | 70 |
| succinic acid saturated acid monoglyceride [5-9] |  |  |  |  | 70 | 71 |
| sucrose fatty acid ester (oleate) [5-24] |  |  |  |  | 58 | 62 |
| poly (2-3) glycerin oleate [5-6] |  |  |  |  | 58 | 68 |
| polyoxyethylene (60) sorbitan [1-16] | 80 | 78 | 77 | 73 |  |  |
| polyoxyethylene (20) sorbitan [5-13] |  |  |  |  | 68 | 54 |
| sorbitan palmitate [5-11] |  |  |  |  | 72 | 73 |

From US8940314B2, “Repellent to insects harmful to a plant and method for repelling the same” (Riken, priority 2004, dated 2015)
